We go through eight compounds from paper PMC3426442 (Bioorganic & medicinal chemistry letters, 2012).

A short description of one data set: in vitro. The note with it: human, microsomes.
In another data set the test system is NL4-3 V370A. The note with it: V370A versus NL4-3, single cycle infection assay.
The conditions of data set [1]: in vitro; compared to A43D (A43D compared to bevirimat).
The conditions of data set [2]: ref not given; cited from earlier work.

The compound `CC(C)[C@@H]1CC[C@]2(C(=O)NCCCCCCCCC(=O)N[C@@H](CCC(N)=O)C(=O)O)CC[C@]3(C)[C@H](CC[C@@H]4[C@@]5(C)CC[C@H](O)C(C)(C)[C@@H]5CC[C@]43C)[C@@H]12` [Compound 39] returned a microsomal CLint in “in vitro” of 280 µL/min/mg.

Take `Cc1cn([C@H]2C[C@H](N=[N+]=[N-])[C@@H](CO)O2)c(=O)[nH]c1=O` [AZT, 3′-azido-3′-deoxythymidine]: the “times less potent against the resistant variant” value with NL4-3 V370A came to 2 times.

On to `C=C(C)[C@@H]1CC[C@]2(C(=O)NCCCCCCCNC(C)=O)CC[C@]3(C)[C@H](CC[C@@H]4[C@@]5(C)CC[C@H](O)C(C)(C)[C@@H]5CC[C@]43C)[C@@H]12` [Compound 1], for which the “microsomal / metabolic stability in words” value in data set [1] is “poor”. This compound also yielded a microsomal CLint in “in vitro” of 272 µL/min/mg.

As to `COC(=O)[C@H](CCC(N)=O)NC(=O)CCCCCCCCNC(=O)[C@]12CC[C@@H](C(C)C)[C@@H]1[C@H]1CC[C@@H]3[C@@]4(C)CC[C@H](O)C(C)(C)[C@@H]4CC[C@@]3(C)[C@]1(C)CC2` [Compound 38], the “microsomal / metabolic stability in words” value in data set [1] is given as “improved metabolic stability”. This compound displayed a microsomal CLint in the data set “in vitro” of 219 µL/min/mg.

As to `C=C(C)[C@@H]1CC[C@]2(C(=O)NCCCCCCCCC(=O)N[C@@H](CCC(N)=O)C(=O)OCc3ccccc3)CC[C@]3(C)[C@H](CC[C@@H]4[C@@]5(C)CC[C@H](O)C(C)(C)[C@@H]5CC[C@]43C)[C@@H]12` [Compound 15], the “microsomal / metabolic stability in words” value in data set [1] is given as “improved metabolic stability”. Moreover, the microsomal CLint in the data set “in vitro” turned out to be 169 µL/min/mg.

`C=C(C)[C@@H]1CC[C@]2(C(=O)NCCCCCCCCC(=O)N[C@@H](CCC(N)=O)C(=O)OC)CC[C@]3(C)[C@H](CC[C@@H]4[C@@]5(C)CC[C@H](O)C(C)(C)[C@@H]5CC[C@]43C)[C@@H]12` [Compound 13]: the “microsomal / metabolic stability in words” value in data set [1] is given as “improved metabolic stability”. In “in vitro”, the microsomal CLint amounted to 230 µL/min/mg.

In turn, `C=C(C)[C@@H]1CC[C@]2(C(=O)NCCCCCCCNC(=O)[C@H](CCC(N)=O)NC(=O)OC(C)(C)C)CC[C@]3(C)[C@H](CC[C@@H]4[C@@]5(C)CC[C@H](O)C(C)(C)[C@@H]5CC[C@]43C)[C@@H]12` [Compound 2] showed a microsomal CLint in “in vitro” of 366 µL/min/mg.

`CC(C)(C)c1ccc(C(O)CCCN2CCC(C(O)(c3ccccc3)c3ccccc3)CC2)cc1` (stereo not drawn) [Terfenadine]: the half-life in vivo result in data set [2] is recorded as “around 3.5 h”.

In general, microsomal CLint refers to the rate of metabolic loss divided by the concentration.
